Columns and labels:
[1] = In vitro metabolic stability in human liver microsomes (HLM); conditions: both, human, liver microsomes
[2] = Pharmacokinetic and oral bioavailability in the rat; assay type: in vivo, Sprague-Dawley rats; conditions: Sprague-Dawley, plasma, oral gavage 10-30 mg/kg vs intravenous bolus 2-5 mg/kg
Protocol: Sprague-Dawley rats (200-300 g) were fed a standard laboratory rodent diet and housed in individual cages on a 12-hour light and 12-hour dark cycle with room temperature maintained at 22±3° C. and relative humidity at 50±20%. Rats were fasted overnight before dosing, with food returned after the 6 hour blood samples were obtained. Bedding was removed until after the 6 hour blood samples were obtained. Water was provided ad libitum throughout the study.
Dosing solution of test compound was prepared in desired oral formulation for oral administration via gavage needle at 10-30 mg/kg (10 mL/kg) to three or four rats. […]
Plasma samples (incurred study samples, calibration standards, quality controls) were normally prepared as follows. […] Calibration standards were typically prepared in the range of 2 ng/ml to 10 μg/mL for quantitation. […]
All pharmacokinetic parameters were determined based on a non-compartmental approach using WinNonlin software (Pharsight, Version 5.1). The terminal elimination half-life (t1/2) was calculated as ln2/λz using the slope (λz) from linear regression analysis of the terminal phase of the plasma concentration-time curve on a semi-log scale. […] The systemic plasma clearance (CLp) was calculated as intravenous dose divided by AUCinf. The volume of distribution at steady state (Vss) was determined as the product of CLp and MRT. […]

[3] = in vitro; conditions: male, rat, microsomes
[4] = tested on: anesthetized rat; experiment: Anesthetized rat spirometry screening assay; assay type: in vivo
Method in brief: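 Rats under urethane (1.5 g/kg i.v., after isoflurane induction) with femoral and tracheal cannulas; compounds given as i.v. bolus at 0.1 and 0.3 mg/kg with formulation-matched vehicle. RR, VT and minute volume from pneumotachometer airflow, in 30 s bins over 6 min post-dose; arterial blood gases taken pre- and 6 min post-dose.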

Structure (SMILES): CCCNc1nc(NC)nc2c(NCCC)nc(NC)nc12.Cl [Compound 4a, N^2,N^6-Dimethyl-N^4,N^8-di-n-propyl-pyrimido[5,4-d]pyrimidine-2,4,6,8-tetraamine hydrochloride]
- half-life at 5 μM [1]: 411 min
- bioavailability [2]: 38%
- melting point: 229 to 232 °C
- half-life at 5 μM [3]: 273 min
- AUC MV Inc (2 min) (ratio vs. std*) ([4]; 2 minute AUC of minute volume increase vs. comparator N-[2,6-di-(n-propylamino)-[1,3]pyrimidin-4-yl]-N,O-dimethyl-hydroxylamine): 1.28 ratio vs. std
- duration of increase in minute ventilation ([4]; anesthetized rat, i.v. bolus): approximately 2 minutes
- effect on blood pressure ([4]; anesthetized rat, i.v. bolus): negligible effects
- effect on minute ventilation above baseline values ([4]; anesthetized rat, i.v. bolus): increase
- effect on pulse rate ([4]; anesthetized rat, i.v. bolus): negligible effects
- effect on respiratory rate ([4]; anesthetized rat, i.v. bolus): stimulatory effects on respiratory rate primarily
- dose dependence of effect on minute volume ([4]; based on a two-minute average): dose-dependent effect
- effect compared to a reference compound as measured by area-under-curve ([4]; minute volume, two-minute average): greater effect
